Experimental data reported in the NIST ThermoML archive (doi:10.1016/j.jct.2018.12.014).
± gives the expanded uncertainty stated by the source.

What was measured:
[1] = refractive index (Na D-line) (dimensionless); wn = mass fraction of the nth substance listed; details: 101 kPa, Liquid, Standard Abbe refractometry
[2] = wn = mass fraction of the nth substance listed; details: 101 kPa, Liquid, Vibrating tube method

C[P+](c1ccccc1)(c1ccccc1)c1ccccc1.[Br-] [methyltriphenylphosphonium bromide] + CN(CCO)CCO
Details | mass density, w1 = 0.1578 [kg/m3] | mass density, w1 = 0.2306 [kg/m3] | mass density, w1 = 0.2998 [kg/m3] | refractive index, w1 = 0.1578 | refractive index, w1 = 0.2306 | refractive index, w1 = 0.2998
[1], 293.15 K | – | – | – | 1.49579 ± 0.0039 | 1.50867 ± 0.0038 | 1.52077 ± 0.0038
[1], 298.15 K | – | – | – | 1.49402 ± 0.0038 | 1.50694 ± 0.0038 | 1.51904 ± 0.0038
[1], 303.15 K | – | – | – | 1.49224 ± 0.0038 | 1.50517 ± 0.0038 | 1.51732 ± 0.0038
[1], 308.15 K | – | – | – | 1.49037 ± 0.0038 | 1.5034 ± 0.0038 | 1.51557 ± 0.0038
[1], 313.15 K | – | – | – | 1.48865 ± 0.0038 | 1.50162 ± 0.0038 | 1.51383 ± 0.0038
[1], 318.15 K | – | – | – | 1.4869 ± 0.0038 | 1.49961 ± 0.0038 | 1.51212 ± 0.0038
[1], 323.15 K | – | – | – | 1.48502 ± 0.0038 | 1.49793 ± 0.0038 | 1.5103 ± 0.0038
[1], 328.15 K | – | – | – | 1.48313 ± 0.0038 | 1.49584 ± 0.0038 | 1.5083 ± 0.0038
[1], 333.15 K | – | – | – | 1.48114 ± 0.0038 | 1.4942 ± 0.0038 | 1.50644 ± 0.0038
[1], 338.15 K | – | – | – | 1.47935 ± 0.0038 | 1.49244 ± 0.0038 | 1.50466 ± 0.0038
[1], 343.15 K | – | – | – | 1.47746 ± 0.0038 | 1.49064 ± 0.0038 | 1.50288 ± 0.0038
[2], 293.15 K | 1086.84 ± 8.5 | 1106.7 ± 8.4 | 1124.09 ± 8.3 | – | – | –
[2], 298.15 K | 1083.1 ± 8.5 | 1102.99 ± 8.4 | 1120.4 ± 8.2 | – | – | –
[2], 303.15 K | 1079.34 ± 8.5 | 1099.26 ± 8.3 | 1116.71 ± 8.2 | – | – | –
[2], 308.15 K | 1075.59 ± 8.4 | 1095.54 ± 8.3 | 1113.03 ± 8.2 | – | – | –
[2], 313.15 K | 1071.84 ± 8.4 | 1091.82 ± 8.3 | 1109.36 ± 8.2 | – | – | –
[2], 318.15 K | 1068.08 ± 8.4 | 1088.09 ± 8.3 | 1105.69 ± 8.1 | – | – | –
[2], 323.15 K | 1064.32 ± 8.3 | 1084.36 ± 8.2 | 1102.01 ± 8.1 | – | – | –
[2], 328.15 K | 1060.54 ± 8.3 | 1080.63 ± 8.2 | 1098.34 ± 8.1 | – | – | –
[2], 333.15 K | 1056.77 ± 8.3 | 1076.9 ± 8.2 | 1094.66 ± 8.1 | – | – | –
[2], 338.15 K | 1052.98 ± 8.3 | 1073.17 ± 8.2 | 1090.99 ± 8 | – | – | –
[2], 343.15 K | 1049.19 ± 8.2 | 1069.43 ± 8.1 | 1087.31 ± 8 | – | – | –
[2], 348.15 K | 1045.47 ± 8.2 | 1065.72 ± 8.1 | 1083.63 ± 8 | – | – | –
[2], 353.15 K | 1041.65 ± 8.2 | 1062.05 ± 8.1 | 1080.06 ± 8 | – | – | –
